Source: PMC3038857, “Using Nuclear Receptor Activity to Stratify Hepatocarcinogens” (PLoS ONE, 2011)
Where two headings read alike, the source gives them in different places.

How the values were obtained:
CYP3A4 = assay: CLZD_CYP3A4: Change in expression of CYP3A4 (primary human hepatocytes); assay type: cell-based; details: 24 hr
Procedure, shortened: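 Chemicals are tested in human hepatocyte primary cultures over 0.004-40 µM (5 concentrations) for 6, 24 or 48 hr, and concentration- and time-dependent transcript changes are read by quantitative nuclease protection assay.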

HMGCS2 = assay: CLZD_HMGCS2: Change in expression of HMGCS2 (primary human hepatocytes); assay type: cell-based; details: 24 hr
Method: This is a collection of multiplexed gene expression assays focused on Phase I and II xenobiotic metabolizing enzymes and transporters. Human primary cell cultures were treated with chemicals at 5 concentrations (0.004-40 [drawing 42] M) for 6, 24 and 48 hr. Concentration- and time-response profiles of chemicals were measured by the expression of key nuclear receptor target genes, activities of CYP1A enzymes (EROD), and cell morphology. Fourteen gene targets were monitored by quantitative nuclease protection assay including: six representative cytochrome P-450 genes, four hepatic transporters, three Phase II conjugating enzymes, and one endogenous metabolism gene involved in cholesterol synthesis. The target genes associated with nuclear receptor pathways are as follows: [drawing 43] and [drawing 44] with [drawing 45]; [drawing 46] , [drawing 47] , [drawing 48] , [drawing 49] , [drawing 50] and [drawing 51] with [drawing 52]; [drawing 53] , [drawing 54] , [drawing 55] and [drawing 56] with [drawing 57]; [drawing 58] with [drawing 59]; and [drawing 60] with [drawing 61] . Assays were run in primary human hepatocyte cultures by CellzDirect Invitrogen Inc. (Durham, NC), in collaboration with EPA.
Multiplexed Gene Expression in Human Primary Hepatocytes: This is a collection of multiplexed gene expression assays focused on Phase I and II metabolic enzymes and transporters. […] Fourteen gene targets were monitored by quantitative nuclease protection assay: six representative cytochrome P450 genes, four hepatic transporters, three Phase II conjugating enzymes, and one endogenous metabolism gene involved in cholesterol synthesis. Cells were exposed at 5 concentrations (0.004-40 µM) for 6, 24 or 48 hr. Gene targets are sentinels for five nuclear receptor signaling pathways: AhR, CAR, PXR, FXR, and PPARα. All gene are associated with nuclear receptor pathways: CYP1A1 and CYP1A2 with AHR; ABCB1, ABCG2, CYP2B6, CYP2C9, CYP2C19 and UGT1A1 with CAR; CYP3A4, GSTA2, SLCO1B1 and SULT2A1 with PXR; HMGCS2 with PPARA; and ABCB11 with FXR. […] Detailed description of the methods, data and analysis methods for this dataset will be presented in a separate publication.

Mouse Liver [1] = details: ref ToxRefDB, cited from earlier work
Mouse Liver [2] = details: chronic study, mouse liver; ref ToxRefDB; cited from earlier work
Mouse Liver [3] = details: chronic study, mouse liver; ref ToxRefDB; cited from earlier work; remark: listed apart in the source
Rat Liver [4] = details: ref ToxRefDB, cited from earlier work
Rat Liver [5] = details: ref ToxRefDB, cited from earlier work; remark: listed apart in the source
Rat Liver [6] = details: ref ToxRefDB, cited from earlier work; remark: listed apart in the source
LXRa (NR1H2) = assay: NCGC_LXR_Agonist: GAL4 BLAM Reporter gene assay: LXRa; assay type: cell-based, human; details: agonist mode
Method: These assays measure binding constants and enzyme inhibition values for nuclear receptors. The targets include [drawing 67] , [drawing 68] , [drawing 69] , [drawing 70] , [drawing 71] , [drawing 72] , [drawing 73] , [drawing 74] , [drawing 75] and [drawing 76] . Each of the nuclear receptor targets was measured in agonist mode. Assays were run at the NIH Chemical Genomics Center (Rockville, MD).
Cell-based HTS Assays: These assays measuring binding constants and enzyme inhibition values for nuclear receptors. The targets include AR, ER, FXR, LXR, PPARα, PPARδ, PPARγ, RXRα, RXRβ and PXR. Each of the nuclear receptor targets was measured in both agonist and antagonist mode, but the antagonist data is still undergoing analysis due to possible interference between cytotoxicity and assay activity, so antagonist mode data were not used in the present analysis. Assays were run at the NIH Chemical Genomics Center (Rockville, MD) as part of the Tox21 collaboration. […] The R^2 was required to be ≥0.5. Values where only the highest concentration exceeded 50% activity were excluded to eliminate weak or false positives. Detailed description of the methods, data and analysis methods for this dataset will be presented in a separate publication.

PXR (NR1I2) = biological target: T1, PXR (NR1I2) (Homo sapiens, UniProt O75469); assay: ATG_PXRE_CIS: Factorial reporter gene assay (HepG2); assay type: cell-based; set-up: endogenous in cells; host or cells: HepG2; details: HepG2 reporter
T1 sequence (O75469 1-434): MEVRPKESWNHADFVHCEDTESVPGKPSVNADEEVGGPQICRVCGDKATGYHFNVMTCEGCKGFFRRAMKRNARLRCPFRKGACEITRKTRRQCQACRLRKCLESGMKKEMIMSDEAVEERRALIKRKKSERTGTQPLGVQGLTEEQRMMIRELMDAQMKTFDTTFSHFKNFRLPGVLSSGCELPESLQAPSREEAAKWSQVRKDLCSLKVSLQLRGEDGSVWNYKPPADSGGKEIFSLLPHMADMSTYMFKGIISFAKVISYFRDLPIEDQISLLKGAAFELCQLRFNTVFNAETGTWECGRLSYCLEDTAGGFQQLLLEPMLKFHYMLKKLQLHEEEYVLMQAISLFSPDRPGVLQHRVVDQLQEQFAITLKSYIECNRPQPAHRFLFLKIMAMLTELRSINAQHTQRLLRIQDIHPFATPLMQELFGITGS
Procedure, shortened: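 Each chemical received seven doses, the first at its MTC, then successive three-fold dilutions. Host cells: HepG2 carrying either cis (PXRE, 48 sites) or trans one-hybrid (ERRg, FXR, PPARg; 25 units) reporter libraries.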

LXRa (NR1H3) = biological target: T2, LXRa (NR1H3) (Homo sapiens, UniProt Q13133); assay: ATG_LXRa_TRANS: Factorial reporter gene assay (HepG2); assay type: cell-based; details: HepG2
T2 construct: expressed in transfected cells; host or cells: HepG2
T2 sequence (Q13133 1-447): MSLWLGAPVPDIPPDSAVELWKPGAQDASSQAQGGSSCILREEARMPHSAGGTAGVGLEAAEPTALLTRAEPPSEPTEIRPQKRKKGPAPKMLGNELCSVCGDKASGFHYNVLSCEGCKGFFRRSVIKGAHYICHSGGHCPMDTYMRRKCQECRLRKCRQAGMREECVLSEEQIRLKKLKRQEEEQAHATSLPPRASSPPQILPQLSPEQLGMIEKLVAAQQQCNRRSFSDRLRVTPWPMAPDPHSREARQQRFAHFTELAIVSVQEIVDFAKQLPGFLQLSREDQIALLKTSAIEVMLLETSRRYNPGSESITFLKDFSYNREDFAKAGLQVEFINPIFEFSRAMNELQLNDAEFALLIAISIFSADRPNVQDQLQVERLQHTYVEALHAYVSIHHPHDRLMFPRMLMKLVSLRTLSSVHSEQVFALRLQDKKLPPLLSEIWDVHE
Method: A multiple reporter transcription unit (MRTU) library consisting of 48 transcription factor binding sites was transfected into the HepG2 human liver hepatoma cell line. In addition to the cis-acting reporter genes (CIS), a modification of the approach was used to generate a trans-system (TRANS) with a mammalian one-hybrid assay consisting of an additional 25 MRTU library reporting the activity of nuclear receptor super-family members. […] These assays were performed by Attagene Inc. (Morrisville NC) under contract to EPA.
In addition to the cis-acting reporter genes (CIS), a modification of the approach was used to generate a trans-system (TRANS) with a mammalian one-hybrid assay consisting of an additional 25 MRTU library reporting the activity of nuclear receptor super-family members. […] Chemicals were then tested in the CIS and TRANS assays at seven concentrations starting at the MTC and followed by three-fold serial dilutions. These assays were performed by Attagene Inc. (Morrisville NC) under contract to EPA. Detailed description of the methods, data and analysis methods for this dataset will be presented in a separate publication.

## COc1cc(OC)nc(Sc2cccc(Cl)c2C(=O)[O-])n1.[Na+] [r275]
CYP3A4
  CLZD_CYP3A4_24: 4.874
HMGCS2
  CLZD_HMGCS2_24: 5.29
Mouse Liver [1]; chronic study, mouse liver
  CHR_Mouse_Liver_1_AnyLesion: 6
Mouse Liver [2]
  CHR_Mouse_Liver_2_PreneoplasticLesion: 6
Mouse Liver [3]
  CHR_Mouse_Liver_3_NeoplasticLesion: 6
Rat Liver [4]; chronic study, rat liver
  CHR_Rat_Liver_1_AnyLesion: 6
Rat Liver [5]; chronic study, rat liver
  CHR_Rat_Liver_2_PreneoplasticLesion: 6
Rat Liver [6]; chronic study, rat liver
  CHR_Rat_Liver_3_NeoplasticLesion: 0

## CCCOc1nn(C(=O)[N-]S(=O)(=O)c2ccccc2C(=O)OC)c(=O)n1C.[Na+] [r264]
LXRa (NR1H2)
  NCGC_LXR_Agonist: 4.648
Rat Liver [4]; chronic study, rat liver
  CHR_Rat_Liver_1_AnyLesion: 0
Rat Liver [5]; chronic study, rat liver
  CHR_Rat_Liver_2_PreneoplasticLesion: 0
Rat Liver [6]; chronic study, rat liver
  CHR_Rat_Liver_3_NeoplasticLesion: 0
PXR (NR1I2)
  ATG_PXRE_CIS: 4.252

## O=C(NC(=O)c1c(F)cccc1F)Nc1ccc(OC(F)(F)C(F)OC(F)(F)F)c(Cl)c1 (stereo not shown) [row 223]
LXRa (NR1H3)
  ATG_LXRa_TRANS: 4.523
LXRa (NR1H2)
  NCGC_LXR_Agonist: 4.536
Mouse Liver [1]; chronic mouse study, liver
  CHR_Mouse_Liver_1_AnyLesion: 6
Rat Liver [4]; chronic rat study, liver
  CHR_Rat_Liver_1_AnyLesion: 6
Rat Liver [5]; chronic rat study, liver
  CHR_Rat_Liver_2_PreneoplasticLesion: 0
Rat Liver [6]; chronic rat study, liver
  CHR_Rat_Liver_3_NeoplasticLesion: 0
